Laboratory results taken from patent US10092566B2, “Composition for controlling a gut immunity and use thereof” (SEOUL NATIONAL UNIVERSITY R&DB FOUNDATION, priority 2013, dated 2018).
“Also recorded” adds a separate entry of the source.

Experiments:
germ-free Drosophila = test: Survival duration of germ-free flies on uracil-containing media; assay type: in vivo
Source text: Control Drosophila and PLCβ-DUOX pathway-mediated mutated Drosophila (PLCβ^−/− and DUOX-RNAi) were used in the experiment. It is known that PLCβ^−/− and DUOX-RNAi flies have a short life span under conventional rearing conditions but a normal life span under germ-free conditions (Ha et al., Nat Immunol 10, pp. 949-957, 2009). Therefore, to examine the effects of uracil on the survival rate of genetically different Drosophila, germ-free animals were used. Germ-free animals were reared in germ-free media containing 1 nM of uracil. Germ-free animals were moved to a newly sterilized bottle that had germ-free media containing uracil every 4 or 5 days. Drosophila remained germ-free throughout the entire experimental processes.

Upd3-JAK-STAT pathway = test: Epithelial cell renewal program and Upd3-JAK-STAT reporter analysis; assay type: in vivo, Drosophila
Experimental: To examine a renewal program for epithelial cells, a 5% sucrose solution containing 20 nM of uracil (for 16 hours) or different bacteria (approx. 5×10^8 cells; E. carotovora, E. carotovora-pyrE::Tn5 and E. carotovora-pyrE::Tn5-pyrE for 22 hours) was orally administered to genetically different adult Drosophila (5 to 6 days old). For the recovery experiment, Drosophila coingested URA− strain (E. carotovora-pyrE::Tn5) and 1 nM of uracil. Following the dissection of the gut, the gut was treated with primary antibodies [anti-phospho-histone H3 (1:2000 dilution; Millipore), anti-LacZ (1:1000 dilution; Cappel), or anti-Prospero (1:100 dilution; Developmental Studies Hybridoma Bank)]. Then, the gut was treated with secondary antibodies (Alexa Fluor 568 goat anti-rabbit IgG or Alexa Fluor 488 goat anti-murine IgG (Invitrogen)). DAPI was used for nuclear staining.
Drosophila containing esg-GAL4> UAS-GFP were used to analyze ISC proliferation and differentiation. A 5% sucrose solution containing 20 nM of uracil (for 16 hours) or different bacteria (E. carotovora, E. carotovora-pyrE::Tn5, and E. carotovora-pyrE::Tn5-pyrE, approx. 5×10^8 cells, for 22 hours) was orally administered to Drosophila (5 to 6 days old). For the recovery experiment, Drosophila coingested a URA− strain (E. carotovora-pyrE::Tn5) and 1 nM of uracil. […]

DUOX = DUOX expression by qPCR; assay type: in vivo, Drosophila; settings: uracil 20 nM
Experimental: Fluorescent RT-PCR was conducted to quantify gene expression and double-stranded DNA dye and SYBR green (Perkin Elmer, Waltham, Mass., USA) were used. To detect target gene trascriptomes, Cecropin (Sense, 5′-ATGAACTTCTACAACATCTTCG-3′ (SEQ ID NO: 5); Antisense, 5′-GGCAGTTGCGGCGACATTGGCG-3′ (SEQ ID NO: 6)), Diptericin (Sense, 5′-GGCTTATCCGATGCCCGACG-3′ (SEQ ID NO: 7); Antisense, 5′-TCTGTAGGTGTAGGTGCTTCCC-3′ (SEQ ID NO: 8)), and DUOX (Sense, 5′-GCTGCACGCCAACCACAAGAGACT-3′ (SEQ ID NO: 9); Antisense, 5′-CACGCGCAGCAGGATGTAAGGTTT-3′ (SEQ ID NO: 10)) were used, and as a control group, Rp49 (Sense, 5′-AGATCGTGAAGAAGCGCACCAAG-3′ (SEQ ID NO: 11); Antisense, 5′-CACCAGGAACTTCTTGAATCCGG-3′ (SEQ ID NO: 12)) was used. SYBR green analysis was conducted by an ABI PRISM 7700 system (PE Applied Biosystems, Foster City, Calif., USA) according to the manufacturer's instructions. All of the samples were repeated three times and analyzed, and a detected amount of mRNA was normalized with mRNA in the control group. Normalized data was used to quantify the relative amount of mRNA according to cycling threshold analysis. Targeted gene expression was expressed as the relative amount of expression.

Drosophila S2 cells = test: Measurement of intracellular calcium (fura-2); assay type: cell-based; settings: uracil 20 nM
Experimental: Intracellular Ca^2+ was measured by the method disclosed in the previous research (Rosker et al., J Biol Chem 279, pp. 13696-13704, 2004). Briefly speaking, Drosophila S2 cells (approx. 10^8 cells) were loaded with pH 7.4 buffer containing 10 mM glucose, 140 mM NaCl, 1 mM CaCl2, 5 mM KCl, 1 mM MgCl2, and 10 mM HEPES and the solution was treated with […] fura-2-acetoxymethyl ester for 40 minutes at room temperature. The cells were washed twice with pH 7.4 Ca^2+ chelating buffer containing 10 mM glucose, 140 mM NaCl, 1 mM EDTA, 1 mM EGTA, 5 mM KCl, 1 mM MgCl2, and 10 mM HEPES, and were re-suspended in the same buffer. Then, 20 nM of uracil was added to the cells. Fluorescence was continuously recorded at an interval of 0.5 seconds (excitation at 340 nm and 380 nm; emission at 510 nm) by fluorescent spectrophotometer (Shimadzu, Tokyo, Japan) at room temperature.

`O=c1cc[nH]c(=O)[nH]1` [uracil] was tested, and the “host lethality / mortality after long-term ingestion of uracil” value (germ-free Drosophila; germ-free control flies, uracil-containing vs normal food) was “lethality of control flies in a dose-dependent manner; also recorded: statistically significant difference in mortality”, the “uracil-induced host pathology in PLCβ−/− or DUOX-RNAi flies” value (germ-free Drosophila; in vivo) was “completely absent” and the “restoration of infection-induced Upd3-JAK-STAT signaling, ISC proliferation, differentiation and enteroblast accumulation” value (Upd3-JAK-STAT pathway; coingestion of 1 nM uracil with URA− strain E. carotovora-pyrE::Tn5) was “sufficient to restore”. For the same compound, the “Upd3-JAK-STAT pathway activation and epithelial cell renewal by uracil ingestion alone” value (Upd3-JAK-STAT pathway; uracil 20 nM, PLCβ-dependent) was “sufficient to trigger”, the DUOX gene induction (DUOX) was “DUOX gene induction” and the “Ca2+ mobilization” value (Drosophila S2 cells) was “Ca^2+ mobilization”.
